Test results from PubChem BioAssay (NCI).
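Protocol summary: plate cells (96-well), add compound at 5 concentrations, incubate 48 h, interpolate endpoints linearly. At the GI50, growth is halved. TGI: concentration producing complete growth inhibition.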

What was measured:
Assay in all cases: inhibition of tumour cell growth, NCI panel, 48 h
A549 NSCLC = tested on: A549 NSCLC
BT-549 breast = tested on: BT-549 breast
HL-60(TB) leukemia = tested on: HL-60(TB) leukemia
LOX IMVI melanoma = tested on: LOX IMVI melanoma
MCF7 breast = tested on: MCF7 breast
MDA-MB-435 = tested on: MDA-MB-435
MOLT-4 leukemia = tested on: MOLT-4 leukemia
OVCAR-5 ovarian = tested on: OVCAR-5 ovarian
PC-3 prostate = tested on: PC-3 prostate
NCI-H23 lung = tested on: NCI-H23 lung

SMILES	GI50 (A549 NSCLC) [µM]	TGI (A549 NSCLC) [µM]	GI50 (BT-549 breast) [µM]	TGI (BT-549 breast) [µM]	GI50 (HL-60(TB) leukemia) [µM]	TGI (HL-60(TB) leukemia) [µM]	GI50 (LOX IMVI melanoma) [µM]	TGI (LOX IMVI melanoma) [µM]	GI50 (MCF7 breast) [µM]	TGI (MCF7 breast) [µM]	GI50 (MDA-MB-435) [µM]	TGI (MDA-MB-435) [µM]	GI50 (MOLT-4 leukemia) [µM]	TGI (MOLT-4 leukemia) [µM]	GI50 (OVCAR-5 ovarian) [µM]	TGI (OVCAR-5 ovarian) [µM]	GI50 (PC-3 prostate) [µM]	TGI (PC-3 prostate) [µM]	TGI (NCI-H23 lung) [µM]	GI50 (NCI-H23 lung) [µM]
O=C1C=C(OCC=C(C(F)(F)F)C(F)(F)F)c2ccccc2C1=O	5.91	27	2.49	6.64	2.44	6.49	1.56	3.46	1.39	3.94	1.74	3.3	2.35	5.38	2.45	5.87	1.92	5.91		
c1ccc2c(c1)Cc1c(Cc3csc4ccccc34)ccc3cccc-2c13		> 100				> 100								> 100		> 100			> 100	
COc1ccc(/C=C/C(=O)c2c(-c3ccccc3)nn(C)c(=O)c2N2CCOCC2)cc1		> 100				60.6		> 100						> 100					> 100	
COc1cc(-c2nc3ccccc3o2)cc(CN2CCCCC2)c1O	1.63	4.12	2.45	9.16	4.77	36.9			1.58	4.34	1.7	3.53	4.99	37.4	5.31	20.7	0.664	> 100	5.26	1.54
CCOC(=N)CC(=O)Nc1ccccc1		> 46.4				> 100		> 71.4						> 31.6		> 100			> 46.4	
